According to PubChem BioAssay AID2060489 (Molecular Pharmacology Branch, DTP, NCI, 2025):

Test system: 922993-354-T-J3-PDC complex spheroids, viability
Test: Anticancer human tumor 922993-354-T-J3-PDC patient-derived endometrial carcinoma cell line growth inhibition [GQUAD]
Details: for IC50: curve of first compound; for viability, T/C: stronger effect = lower value
Description: DNA G-quadruplex Stabilizer Agents in Combinations in Complex Spheroids
A high-throughput screen of multi-cell type tumor spheroids was designed to identify active combinations of DNA G-quadruplex stabilizer agents and targeted small molecules. Complex spheroids include a stromal component modeled by human endothelial cells (HUVEC) and fibroblasts modeled by human mesenchymal stem cells (MSCs). The concentration ranges selected for each drug and investigational agent were based upon clinically achievable concentrations if the clinical Cmax of the agent was known.
Compounds. The drugs and investigational agents: pidnarulex (CX-5461; NSC782164), APTO-253 (NSC789042), BRACO-19 (NSC847499), peposertib (NSC802822), ceralasertib (NSC780249), elimusertib (NSC800525), camonsertib (NSC841442), AZD-1390 (NSC803789), olaparib (NSC753686), talazoparib (NSC767125), ART-558 (NSC835418), sotorasib (NSC818433), MRTX-1133 (NSC836407), SN-38 (NSC673596), topotecan (NSC609699), etoposide (NSC141540), doxorubicin (NSC123127), gemcitabine (NSC613327), 5-fluorouracil (NSC19893), paclitaxel (NSC125973), vemurafenib (NSC761431), panobinostat (NSC761190), R-306465 (JNJ-16241199; NSC773264), adavosertib (NSC754352), TP-3654 (NSC805149), carboplatin (NSC241240), KSQ-4279 (NSC840948), and staurosporine (NSC755774) were obtained from the National Cancer Institute (NCI) Developmental Therapeutics Program Chemical Repository (34). The FDA-approved anticancer drug set is available from the NCI Developmental Therapeutics Program. […] The stock solutions were prepared in dimethyl sulfoxide (DMSO, Sigma-Aldrich, St. Louis, MO, cat. D2650) at 800-fold the tested concentration and stored at -70 degrees C prior to their use. All drugs and investigational agents were tested over a range starting from a high concentration at or near the clinical Cmax and decreasing in half-log increments. If the clinical Cmax for an agent had not been determined, the highest concentration tested was 10 microM.
2.3 Cell Culture. All cells were maintained in an incubator at 37 degrees C and 5% CO2 with 95% humidity. The PDC lines were cultured according to standard operating procedures established by the NCI PDMR. All PDCs were thawed and cultured in Matrigel-coated flasks prepared with a working solution of 1X Ham's F-12 nutrient mix, without supplementation (Invitrogen, cat. 11765054), 100 U/mL penicillin-streptomycin (Invitrogen, cat. 15140122), and 2.5% Matrigel (Corning Inc., cat. 354248) for the first three passages. The 857933-349-R-J2-PDC line was cultured in 6C/Colon 1B media, which includes advanced DMEM/F-12 (Thermo Fisher Scientific, cat. 12634028), 10 mM HEPES (Thermo Fisher Scientific, cat. 15630080), 1X GlutaMAX supplement (Thermo Fisher Scientific, cat. 35050061), 0.1 mg/mL primocin (InvivoGen, cat. ant-pm-2), 10% defined fetal bovine serum, heat inactivated (HyClone Laboratories Inc., cat. SH30070.03HI), 50% L-WRN conditioned media (ATCC, cat. CRL-3276), 1.25 mM N-Acetyl-L-cysteine (Sigma-Aldrich, cat. A9165), 10 mM nicotinamide (Sigma-Aldrich, cat. N0636), 1X B-27 supplement (Thermo Fisher Scientific, cat. 17504044), 1X N-2 supplement (Thermo Fisher Scientific, cat. 17502048), 10 microM Y-27632 dihydrochloride (Tocris Bioscience, cat. 1254), and 50 ng/mL human EGF recombinant protein (Thermo Fisher Scientific, cat. PHG0311). The 485176-168-R4-J1-PDC line was cultured in Panc media, which includes all 6C/Colon 1B media components plus 100 ng/mL human FGF-10 (Thermo Fisher Scientific, cat. 100-26), 500 nM SB-431542 (Selleckchem, cat. S1067), and gastrin (Tocris, cat. 3006).
[…]

[1] = second compound 0.0316 µM, first compound 0.0316 µM
[2] = second compound 0.0316 µM, first compound 0.316 µM
[3] = second compound 0.1 µM, first compound 0.0316 µM
[4] = second compound 0.1 µM, first compound 0.316 µM
[5] = second compound 0.316 µM, first compound 0.0316 µM
[6] = second compound 0.316 µM, first compound 0.316 µM
[7] = second compound 1 µM, first compound 0.0316 µM
[8] = second compound 1 µM, first compound 0.316 µM
[9] = second compound 3.16 µM, first compound 0.0316 µM
[10] = second compound 3.16 µM, first compound 0.316 µM
[11] = second compound 10 µM, first compound 0.0316 µM
[12] = second compound 10 µM, first compound 0.316 µM
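Further: spheroids exposed to compounds for seven days.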
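Wherever viability, T/C is given: 100% = DMSO vehicle control viability.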

## COc1ncnc(C2CC2)c1-c1ncc2cnn(Cc3ccc(-c4nc(C(F)(F)F)cn4C(C)C)cc3)c2n1 + CN(C)c1ccc(Nc2c3ccc(NC(=O)CCN4CCCC4)cc3nc3cc(NC(=O)CCN4CCCC4)ccc23)cc1
Second compound 0.0316 µM
  IC50: > 10000 nM
Second compound 0.1 µM
  IC50: > 10000 nM
Second compound 0.316 µM
  IC50: > 10000 nM
Second compound 1 µM
  IC50: > 10000 nM
Second compound 3.16 µM
  IC50: > 10000 nM
Second compound 10 µM
  IC50: > 10000 nM
[1]
  viability, T/C: 94.4%
Second compound 0.0316 µM, first compound 0.1 µM
  viability, T/C: 96.5%
[2]
  viability, T/C: 84%
Second compound 0.0316 µM, first compound 1 µM
  viability, T/C: 72.3%
Second compound 0.0316 µM, first compound 3.16 µM
  viability, T/C: 63.5%
Second compound 0.0316 µM, first compound 10 µM
  viability, T/C: 87.7%
[3]
  viability, T/C: 86%
Second compound 0.1 µM, first compound 0.1 µM
  viability, T/C: 86.7%
[4]
  viability, T/C: 80.9%
Second compound 0.1 µM, first compound 1 µM
  viability, T/C: 86.6%
Second compound 0.1 µM, first compound 3.16 µM
  viability, T/C: 101%
Second compound 0.1 µM, first compound 10 µM
  viability, T/C: 67.2%
[5]
  viability, T/C: 90.8%
Second compound 0.316 µM, first compound 0.1 µM
  viability, T/C: 86%
[6]
  viability, T/C: 74.2%
Second compound 0.316 µM, first compound 1 µM
  viability, T/C: 81.2%
Second compound 0.316 µM, first compound 3.16 µM
  viability, T/C: 90.1%
Second compound 0.316 µM, first compound 10 µM
  viability, T/C: 74.2%
[7]
  viability, T/C: 73.8%
Second compound 1 µM, first compound 0.1 µM
  viability, T/C: 86.4%
[8]
  viability, T/C: 93.6%
Second compound 1 µM, first compound 1 µM
  viability, T/C: 74.3%
Second compound 1 µM, first compound 3.16 µM
  viability, T/C: 90.4%
Second compound 1 µM, first compound 10 µM
  viability, T/C: 76.8%
[9]
  viability, T/C: 98.3%
Second compound 3.16 µM, first compound 0.1 µM
  viability, T/C: 109%
[10]
  viability, T/C: 108%
Second compound 3.16 µM, first compound 1 µM
  viability, T/C: 98.3%
Second compound 3.16 µM, first compound 3.16 µM
  viability, T/C: 108%
Second compound 3.16 µM, first compound 10 µM
  viability, T/C: 76.6%
[11]
  viability, T/C: 115%
Second compound 10 µM, first compound 0.1 µM
  viability, T/C: 116%
[12]
  viability, T/C: 86.6%
Second compound 10 µM, first compound 1 µM
  viability, T/C: 107%
Second compound 10 µM, first compound 3.16 µM
  viability, T/C: 101%
Second compound 10 µM, first compound 10 µM
  viability, T/C: 62.9%

## Cn1ncnc1[C@H]1c2n[nH]c(=O)c3cc(F)cc(c23)N[C@@H]1c1ccc(F)cc1 + CN(C)c1ccc(Nc2c3ccc(NC(=O)CCN4CCCC4)cc3nc3cc(NC(=O)CCN4CCCC4)ccc23)cc1
Second compound 0.0316 µM
  IC50: > 316 nM
Second compound 0.1 µM
  IC50: > 316 nM
Second compound 0.316 µM
  IC50: 222 nM
Second compound 1 µM
  IC50: > 316 nM
Second compound 3.16 µM
  IC50: > 316 nM
Second compound 10 µM
  IC50: > 316 nM
Second compound 0.0316 µM, first compound 0.000999 µM
  viability, T/C: 98.4%
Second compound 0.0316 µM, first compound 0.00316 µM
  viability, T/C: 83.2%
Second compound 0.0316 µM, first compound 0.00999 µM
  viability, T/C: 68.9%
[1]
  viability, T/C: 79.6%
Second compound 0.0316 µM, first compound 0.0999 µM
  viability, T/C: 95.2%
[2]
  viability, T/C: 60.4%
Second compound 0.1 µM, first compound 0.000999 µM
  viability, T/C: 111%
Second compound 0.1 µM, first compound 0.00316 µM
  viability, T/C: 93.7%
Second compound 0.1 µM, first compound 0.00999 µM
  viability, T/C: 98.1%
[3]
  viability, T/C: 90.1%
Second compound 0.1 µM, first compound 0.0999 µM
  viability, T/C: 91.8%
[4]
  viability, T/C: 55.4%
Second compound 0.316 µM, first compound 0.000999 µM
  viability, T/C: 97.4%
Second compound 0.316 µM, first compound 0.00316 µM
  viability, T/C: 85.7%
Second compound 0.316 µM, first compound 0.00999 µM
  viability, T/C: 91.7%
[5]
  viability, T/C: 111%
Second compound 0.316 µM, first compound 0.0999 µM
  viability, T/C: 84.4%
[6]
  viability, T/C: 34.7%
Second compound 1 µM, first compound 0.000999 µM
  viability, T/C: 93.6%
Second compound 1 µM, first compound 0.00316 µM
  viability, T/C: 108%
Second compound 1 µM, first compound 0.00999 µM
  viability, T/C: 96%
[7]
  viability, T/C: 92.1%
Second compound 1 µM, first compound 0.0999 µM
  viability, T/C: 109%
[8]
  viability, T/C: 60.1%
Second compound 3.16 µM, first compound 0.000999 µM
  viability, T/C: 78%
Second compound 3.16 µM, first compound 0.00316 µM
  viability, T/C: 83.5%
Second compound 3.16 µM, first compound 0.00999 µM
  viability, T/C: 109%
[9]
  viability, T/C: 106%
Second compound 3.16 µM, first compound 0.0999 µM
  viability, T/C: 105%
[10]
  viability, T/C: 72.2%
Second compound 10 µM, first compound 0.000999 µM
  viability, T/C: 108%
Second compound 10 µM, first compound 0.00316 µM
  viability, T/C: 118%
Second compound 10 µM, first compound 0.00999 µM
  viability, T/C: 123%
[11]
  viability, T/C: 107%
Second compound 10 µM, first compound 0.0999 µM
  viability, T/C: 98.5%
[12]
  viability, T/C: 83%
